One block for each compound: values may come before it.
Legend:
[1] = test system: activated hepatic stellate cell line LX-2; assay: EGFP mRNA delivery and transfection screening by FACS; format: cell-based; conditions: LX-2 cells; EGFP mRNA lipid nanoparticles, 250 ng mRNA per well
Method: Fourteen types of lipid nanoparticles prepared were screened with activated hepatic stellate cell line LX-2 (Merck (Germany) and hepatocyte line FL83B (ATCC, USA).
Twenty-four hours prior to the experiment, cells were seeded in 6-well plates at 1×10^5 cells/well and incubated at 37° C. The medium was aspirated and the cells were washed with (−) PBS and then treated with lipid nanoparticles encapsulating EGFP mRNA (TriLink BioTechnologies, USA) in 1.5 ml of growth medium for 24 hours. The amount of mRNA per well was 250 ng. Cells were then washed with (−) PBS and incubated in fresh medium for an additional 21 hours. The median fluorescence intensity of EGFP and the percentage of transfected cells were evaluated by fluorescence activated cell sorting (FACS) using a flow cytometer (Cytoflex, Beckman Coulter, USA).

[2] = Average particle size, PDI, zeta potential (dynamic light scattering) and RNA encapsulation efficiency (RiboGreen) of lipid nanoparticles; format: physicochemical; conditions: CL15H6 lipid nanoparticles with SMO-siRNA
Method: The average particle size, particle size distribution, and zeta potential of the lipid nanoparticles were measured using a Zetasizer Nano ZS (Malvern Instruments Ltd, UK) by dynamic light scattering and the form of lipid nanoparticle was measured using a transmission electron-microscope as described in NPL 12. The efficiency of mRNA encapsulation was estimated by RiboGreen fluorometry as described in NPL 13. Although the respective values vary depending on the type of pH-sensitive cationic lipid, the composition of the lipids constituting the lipid nanoparticles, the preparation conditions of the lipid nanoparticles, and the like, the average particle size of the lipid nanoparticles was in the range of 80 to 350 nm, the PDI was in the range of 0.05 to 0.4, the zeta potential was in the range of −16 to +5 mV, and the efficiency of mRNA encapsulation was 75 to 95%. • [NPL 12] Mahmoud A. Younis, et al., “A Multifunctional Lipid-Based Nanodevice for the Highly Specific Codelivery of Sorafenib and Midkine siRNA to Hepatic Cancer Cells”, Molecular Pharmaceutics, Vol. 16, pp. 4031-4044 • [NPL 13] Mahmoud M. Abd Elwakil, et al., “Engineered &-decalactone lipomers bypass the liver to selectively in vivo deliver mRNA to the lungs without targeting ligands”, Materials Horizons, Vol. 8, pp. 2251-2259
The average particle size, particle size distribution, and zeta potential of the lipid nanoparticles were measured in the same manner as in Example 1 to estimate the efficiency of SMO-siRNA encapsulation. The relationship between the flow rate ratio of the aqueous phase to the organic phase, the average particle size, particle size distribution, zeta potential, and SMO-siRNA encapsulation efficiency of the lipid nanoparticles prepared at the same flow rate ratio when CL15H6 was used as the pH-sensitive cationic lipid is shown in Table 3 below. In the subsequent experiments, lipid nanoparticles were prepared at a ratio of 4:1 (aqueous phase: organic phase), which provided the highest encapsulation efficiency, the smallest average particle size, and the smallest PDI.

[3] = test system: SMO mRNA; assay: In vivo SMO mRNA knockdown in liver tissue by qRT-PCR; design: species or system mice; conditions: 24 hours
Method: TAA-induced liver fibrosis model mice were prepared in the same manner as in Example 1, and SMO-siRNA-encapsulated lipid nanoparticles were intravenously administered to the mice via the tail vein so that the amount of RNA per kg of body weight was 0.5 mg/kg. 24 hours after the administration, the mouse livers were collected. The ratio of the amount of SMO mRNA to the amount of GAPDH mRNA in the liver tissue was confirmed by qRT-PCR. The SMO gene is expressed only in hepatic stellate cells in the liver.
Next, a lipid composition containing CL15H6 and SMO-siRNA were mixed in different ratios to prepare lipid nanoparticles with different nitrogen/phosphate (N/P) ratios. Specifically, lipid nanoparticles were prepared with N/P ratios of 0.5, 1, 2, 4, 8, 12, 16, and 20. The prepared lipid nanoparticles were intravenously administered to mice with liver fibrosis so that the amount of RNA per kg of body weight was 0.5 mg/kg, and the ratio of the amount of SMO mRNA to the amount of GAPDH mRNA in the liver tissue was confirmed 24 hours later.
Next, the relationship between the dosage amount of SMO-siRNA and the ratio of the amount of SMO mRNA to the amount of GAPDH mRNA in the liver tissue was examined. For comparison, the relationship between the dosage amount of control siRNA (siCtrl) and the ratio of SMO mRNA to GAPDH mRNA in hepatic stellate cells was also examined.
Lipid nanoparticles encapsulating a mixture of the above SMO-siRNA and TGFβ1-siRNA at a ratio of 1:1 were prepared by using CL15H6, the above SMO-siRNA (SEQ ID NOs: 1 and 2) targeting the mRNA of the SMO gene and the TGFβ1-siRNA (SEQ ID NOS: 3 and 4) targeting the mRNA of the TGFβ1 gene and having the sequence shown in Table 4 below. The prepared lipid nanoparticles were intravenously administered to mice with liver fibrosis so that each of the amounts of SMO-siRNA and of TGFβ1-siRNA per kg of body weight was 0.25 mg/kg, and 24 hours later, the ratios of the amounts of SMO mRNA and of TGFβ1 mRNA to the amount of GAPDH mRNA in the liver tissue was confirmed.

[4] = Apparent pKa of lipid nanoparticles using TNS; conditions: lipid nanoparticles encapsulating mRNA prepared with the lipid, 37° C.
Method: The apparent acid dissociation constant pKa of the lipid membrane of a lipid nanoparticle is measured in a buffer at 37° C. using 6-p-toluidino-2-naphthalenesulfonic acid (TNS) (see Examples).
The apparent pKa of the lipid nanoparticles was also measured using 6-p-toluidino-2-naphthalenesulfonic acid (TNS) (see NPL 14). Specifically, in each well of a 96-well plate, lipid (0.5 mM) of the lipid nanoparticles and TNS (0.6 mM) were added to 200 μL of a buffer solution and mixed. The buffer solution was 20 mM citrate buffer (pH3.50 to 5.50), 20 mM sodium phosphate buffer (pH6.00 to 8.00), or 20 mM Tris-HCl buffer (pH8.00 to 9.00), and each buffer solution contained 150 mM NaCl. At this time, the final concentration of lipid was adjusted to 30 µM and the final concentration of TNS was adjusted to 6 μM. Fluorescence (excitation wavelength 321 nm, fluorescence wavelength 447 nm) was then measured at 37° C. using a plate reader (Enspire 2300 multilabel reader, Perkin Elmer). The pKa was defined as the pH value showing 50% of the maximum fluorescence intensity. • [NPL 14]

[5] = aqueous phase:organic phase 2:1
[6] = aqueous phase:organic phase 3:1
[7] = aqueous phase:organic phase 4:1
[8] = aqueous phase:organic phase 5:1
[9] = aqueous phase:organic phase 9:1

Compound: CCCCCCCCCCCCCCCC(=O)OCCCCCCC(O)(CCCCCCOC(=O)CCCCCCCCCCCCCCC)CCCCN(C)C [CL1D6, 7-(4-(dimethylamino)butyl)-7-hydroxytridecane-1,13-diyl dipalmitate]
mRNA delivery efficiency (median fluorescence intensity of EGFP) [1]: high

Average particle size [2, 5]: 135.72 nm
Encapsulation efficiency [2, 5]: 66.12%
PDI [2, 5]: 0.280
Zeta potential [2, 5]: −6.81 mV
Average particle size [2, 6]: 72.5 nm
Encapsulation efficiency [2, 6]: 92.33%
PDI [2, 6]: 0.192
Zeta potential [2, 6]: −3.75 mV
Average particle size [2, 7]: 53.45 nm
Encapsulation efficiency [2, 7]: 94.06%
PDI [2, 7]: 0.093
Zeta potential [2, 7]: −3.35 mV
Average particle size [2, 8]: 57.12 nm
Encapsulation efficiency [2, 8]: 89.19%
PDI [2, 8]: 0.169
Zeta potential [2, 8]: −5.08 mV
Average particle size [2, 9]: 58.53 nm
Encapsulation efficiency [2, 9]: 75.55%
PDI [2, 9]: 0.217
Zeta potential [2, 9]: −8.2 mV
Compound: CCCCCCCC/C=C\CCCCCCCC(=O)OCCCCCCC(O)(CCCCCCOC(=O)CCCCCCC/C=C\CCCCCCCC)CCCCOC(=O)C1CCN(C)CC1 [CL15H6, 7-hydroxy-7-(4-((1-methylpiperidine-4-carbonyl)oxy)butyl)tridecane-1,13-diyl dioleate]
mRNA delivery efficiency (median fluorescence intensity of EGFP) [1]: high
amount of SMO mRNA (ratio to GAPDH mRNA) in liver tissue ([3]; CL15H6 SMO-siRNA lipid nanoparticles, 0.5 mg/kg iv, N/P ratio 4 among 0.5 to 20): lowest
amount of SMO mRNA (ratio to GAPDH mRNA) in liver tissue ([3]; SMO-siRNA lipid nanoparticles, 0.5 mg/kg RNA iv, versus HEPES buffer control): significantly reduced

Apparent pKa [4]: 6.25
Compound: CCCCCCCC/C=C\CCCCCCCC(=O)OCCCCCCC(O)(CCCCCCOC(=O)CCCCCCC/C=C\CCCCCCCC)CCCCN(CCC)CCC [CL4H6]

Compound: CCCCCCCC/C=C\CCCCCCCC(=O)OCCCCCCC(O)(CCCCCCOC(=O)CCCCCCC/C=C\CCCCCCCC)CCCCN(C)C [CL1H6, 7-(4-(dimethylamino)butyl)-7-hydroxytridecane-1,13-diyl dioleate]
mRNA delivery efficiency (median fluorescence intensity of EGFP) [1]: high

Apparent pKa [4]: 6.00
Compound: CCCCCCCCC(CCCCCC)C(=O)OCCCCCCC(O)(CCCCCCOC(=O)C(CCCCCC)CCCCCCCC)CCCCN(CCC)CCC (stereo not shown) [CL4F6]

Compound: CCCCCCCCC(CCCCCC)C(=O)OCCCCCCC(O)(CCCCCCOC(=O)C(CCCCCC)CCCCCCCC)CCCCOC(=O)C1CCN(C)CC1 (stereo not shown) [CL15F6, 7-hydroxy-7-(4-((1-methylpiperidine-4-carbonyl)oxy)butyl)tridecane-1,13-diyl bis(2-hexyldecanoate)]
mRNA delivery efficiency (median fluorescence intensity of EGFP) [1]: high

Reference: patent US20260021046A1, “LIPID NANOPARTICLE AND PHARMACEUTICAL COMPOSITION” (NATIONAL UNIVERSITY CORPORATION HOKKAIDO UNIVERSITY, priority 2022, published 2026)
